Read-outs that look alike come from different tables or passages of the source.
Legend:
[1] = Radiostability (RCP, Met═O by HPLC) of preformed ^177Lu-A with individual amino acids added (Example 1); format: physicochemical; details: amino acid 6.6 mg/mL, room temperature
Experimental: (§1) The injection volume was 20 μL.
Solutions of the individual amino acids L-Methionine, L-Selenomethionine, L-cysteine HCl.H2O, L-Tryptophan, L-Histidine, and Glycine were prepared at a concentration of 10 mg/mL in 10 mM Dulbecco's phosphate-buffered saline, pH 7.0 [PBS].
The final radioactive concentration of each sample was ˜20 mCi/mL.

[2] = format: physicochemical; details: ^177Lu-A (2.7-3.7 mCi) prepared in presence of 1 mg/mL stabilizer
Experimental: The injection volume was 10 μL.
Each individual stabilizer was prepared at a concentration of 1 mg/mL in sodium acetate (NaOAc) buffer (0.2 M, pH 4.8). […] The reaction mixture was heated to 100° C. for 5 minutes, and then cooled for 5 minutes in an ambient-temperature water hath. To each sample, 10 μL of 2% Na2EDTA.2H2in water was added, and then each was divided into two 100-μL aliquots. One aliquot was analyzed by HPLC (Method 5) and then stored at room temperature in a sealed lead container for 24 hours. The other aliquot was stored frozen (−10° C.) for 24 hours. Each sample was analyzed at t=24 h.

[3] = format: physicochemical; details: ^177Lu-A (3.6 mCi) prepared in presence of 2.5 mg/mL stabilizer
Experimental: To lead-shielded 4-mL vials was added 200 μL of the individual NaOAc-stabilizer solutions, 3.58 mCi ^177LuCl3 (avg) and 5.08 μg COMPOUND A (dissolved in water). The ratio of COMPOUND A to Lutetium was 3:1 for all samples. The reaction mixtures were heated to 100° C. for 5 minutes, then cooled, treated with Na2EDTA.2H2O, subdivided and stored as described in Example 9. The radiochemical purity (RCP) percentage data obtained are listed Table 12.

[4] = format: physicochemical
Experimental: as §1
Each stabilizer was prepared at a concentration of 5 mg/mL in sodium acetate (NaOAc) buffer (0.2 M, pH 4.8). To lead-shielded 4-mL vials were added 200 μL of the individual stabilizer solutions, 3.55 mCi ^177LuCl3 (avg) and 5.44 μg COMPOUND A (dissolved in water). A second set of replicates of each sample was prepared, using the individual stabilizers. To these was added 4.37 mCi ^177LuCl3 (avg) and 6.7 μg (avg) COMPOUND A (dissolved in water). The ratio of COMPOUND A to lutetium was 3:1 for all samples. The reaction mixture was heated to 100° C. for 5 minutes then cooled for 5 minutes in an ambient-temperature water bath. To each sample, 10 μL of 2% Na2EDTA.2H2O in water was added, then each was analyzed by HPLC (Method 1 for the first set of replicates; Method 2 for the second set of replicates). The second set of replicates were stored and analyzed again at t=24 h.

[5] = format: physicochemical; remark: listed apart in the source
Experimental: The reaction vial was crimp-sealed and heated at 100° C. for 5 min. […] The sample was stored in an autosampler in which the temperature is ˜6° C. […] than room temperature, and analyzed by RP-HPLC for up to 24 hours.
L-Selenomethionine: ^177Lu-B was prepared, diluted and analyzed as described above, but 5 mg of L-Se-Met was used in place of PDTC, the heating time was 10 minutes, and the quantity of radioactivity used was 52 mCi.
L-cysteine ethyl ester, HCl: ^177Lu-B was prepared, diluted and analyzed as described above, but 5 mg of L-CEE, hydrochloride salt was used in place of PDTC, the heating time was 5 minutes and the quantity of radioactivity used was 50 mCi.
L-cysteine HCl.H2O: ^177Lu-B was prepared, diluted and analyzed as described above, but 5 mg of L-Cys HCl.H2O was used in place of PDTC, the heating time was 8 minutes and the quantity of radioactivity used was 53 mCi.

[6] = Labeling efficiency and stability of ^111In-B with selenomethionine 2.5 mg/mL (Example 21); format: physicochemical
Experimental: A solution of L-selenomethionine (20 mg/mL) was prepared by dissolving it in NaOAc buffer (0.2 M, pH 4.0). To a lead-shielded 2-mL vial was added 111 μL of NaOAc buffer (0.2 M, pH 4.0), 25 μL selenomethionine solution (0.5 mg of Se-Met), 4 μL of COMPOUND B (20 μg in 0.01 N HCl) and 1.0 mCi ^111InCl3 in 60 μL of 0.05 N HCl. A control reaction was run containing all reagents above, but substituting NaOAc buffer for the Se-Met solution. The reaction mixtures were heated at 100° C. for 15 minutes, and then cooled for 1 minute in an ambient-temperature water bath. To each sample, 200 μL of stabilizing solution (0.2% HSA, 5% ascorbic acid, 0.9% benzyl alcohol, 20 mM Se-Met in 50 mM citrate buffer, pH 5.3) and 2 μL of 1% Na2EDTA.2H2O in water were added, and then each was analyzed stored at room temperature for up to 6 hours and analyzed by HPLC as described below. HPLC conditions: Vydac C18 column, 4.6×250 mm, 5 μM, 1.5 mL/min flow rate at 30° C. Solvent A: 0.1% TFA in water; Solvent B: 0.085% TFA in acetonitrile. Gradient: 80% A/20% B isocratic for 20 min, ramp up to 40% A/60% B in 5 min, hold for 5 mm, return to 80% A/20% B in 5 min.

0-1 h RCP (%) ([1]; ^177Lu-A ~20 mCi/mL (3.5 mCi total), 0-1 h): 100% | 24-h RCP (%) ([1]; ^177Lu-A ~20 mCi/mL, 24 h): 99.1% | 48-h RCP (%) ([1]; ^177Lu-A ~20 mCi/mL, 48 h): 99.9% | RCP % t = 24 h (frozen) ([2]; 24 h frozen (−10° C.)): 99.2% | RCP % t = 24 h (room temp) ([2]; 24 h room temp): 100% | RCP % t = 0 h ([2]; t = 0 h): 100% | RCP % t = 24 h (frozen) ([3]; 24 h frozen): 94.7% | RCP % t = 24 h (room temp) ([3]; 24 h room temp): 95.6% | RCP % t = 0 h ([3]; t = 0 h): 95.7% | Replicate 1 RCP % t = 0 h ([4]; ^177Lu-A (3.55 mCi avg) prepared in presence of 5 mg/mL stabilizer, HPLC Method 1, t = 0 h): 57.5% | Replicate 2 RCP % t = 0 h ([4]; ^177Lu-A (4.37 mCi avg) prepared in presence of 5 mg/mL stabilizer, HPLC Method 2, t = 0 h): 60.6% | Replicate 2 RCP % t = 24 h ([4]; ^177Lu-A (4.37 mCi avg) prepared in presence of 5 mg/mL stabilizer, HPLC Method 2, t = 24 h): 57.1% | (% RCP) 3-h ([5]; ^177Lu-B (44-53 mCi) formulated with 5 mg stabilizing compound, 3 h): 94.6% | (% RCP) 6-h ([5]; ^177Lu-B (44-53 mCi) formulated with 5 mg stabilizing compound, 6 h): 94.4% | (% RCP) 9-h ([5]; ^177Lu-B (44-53 mCi) formulated with 5 mg stabilizing compound, 9 h): 93.3% | (% RCP) 12-h ([5]; ^177Lu-B (44-53 mCi) formulated with 5 mg stabilizing compound, 12 h): 92.6% | (% RCP) 24-h ([5]; ^177Lu-B (44-53 mCi) formulated with 5 mg stabilizing compound, 24 h): 90.6% | (% RCP) 0-h ([5]; ^177Lu-B (44-53 mCi) formulated with 5 mg stabilizing compound, diluted to ~2 mL, ~6° C. above room temperature, 0 h): 95.0% | RCP Drop over 24 hr ([5]; ^177Lu-B formulated with 5 mg stabilizing compound, 0 to 24 h): 4.4% | RCP, % t = 0 ([6]; ^111In-B (1.0 mCi) prepared in presence of selenomethionine 2.5 mg/mL, stabilizing solution added after, t = 0): 98.3% | RCP, % t = 6 h ([6]; ^111In-B prepared in presence of selenomethionine 2.5 mg/mL, room temperature, 6 h): 96.6%
SMILES: C[Se]CC[C@H](N)C(=O)O [L-Selenomethionine]
